Results on 6 compounds are retold here after ChEMBL document CHEMBL1138741, “Virulence regulation and quorum sensing in staphylococcal infections: competitive AgrC antagonists as quorum sensing inhibitors” (J Med Chem, 2004).

Where “and” joins values, the source holds several entries; their conditions need not be identical. Equal values may be shown once. Where a SMILES comes first, the peptide text is derived from it.

In test [1] the target is T1, Receptor-histidine kinase AgrC (Staphylococcus aureus, UniProt O07911).
T1 sequence (O07911 whole entry): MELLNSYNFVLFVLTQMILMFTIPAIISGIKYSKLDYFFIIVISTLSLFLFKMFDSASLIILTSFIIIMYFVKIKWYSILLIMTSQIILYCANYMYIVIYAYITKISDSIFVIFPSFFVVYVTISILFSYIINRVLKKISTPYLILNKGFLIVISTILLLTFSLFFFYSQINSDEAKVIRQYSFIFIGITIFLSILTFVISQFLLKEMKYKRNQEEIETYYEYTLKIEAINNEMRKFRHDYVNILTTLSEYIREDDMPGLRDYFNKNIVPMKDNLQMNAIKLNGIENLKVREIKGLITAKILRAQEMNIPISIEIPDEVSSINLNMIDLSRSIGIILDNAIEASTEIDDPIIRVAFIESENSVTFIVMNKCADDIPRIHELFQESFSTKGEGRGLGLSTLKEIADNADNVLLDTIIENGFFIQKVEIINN
Kind of test: Effective concentration to antagonise accessory gene regulator C1 of Staphylococcus aureus; range = 9-11 uM. In kind it is functional.

For test [2], the target named is T1, Receptor-histidine kinase AgrC. The experiment in a line: Concentration required to antagonise accessory gene regulator C3 of Staphylococcus aureus. It counts as functional.
The target is the same in test [3]. The experiment in a line: Effective concentration to antagonise accessory gene regulator C4 of Staphylococcus aureus. In kind it is functional.
Test [4] has the same target. The experiment in a line: Antagonistic concentration for accessory gene regulator C1 of Staphylococcus aureus. In kind it is functional.
Test [5] shares this target. Kind of test: Concentration required to antagonise accessory gene regulator C2 of Staphylococcus aureus. In kind it is functional.
For test [6] the target is unchanged. Kind of test: Concentration required to antagonise accessory gene regulator C4 of Staphylococcus aureus. In kind it is functional.
For test [7] the target is unchanged. The experiment in a line: Effective concentration to antagonise accessory gene regulator C2 of Staphylococcus aureus. It counts as functional.
The target is the same in test [8]. Kind of test: Concentration required to inhibit quorum sensor of Staphylococcus aureus.
For test [9] the target is unchanged. The experiment in a line: Effective concentration to antagonise accessory gene regulator C3 of Staphylococcus aureus. It counts as functional.

The compound `CC[C@H](C)[C@@H]1NC(=O)[C@H](Cc2ccccc2)NC(=O)[C@H](CC(=O)O)NC(=O)[C@@H](NC(=O)[C@@H](NC(=O)[C@H](CO)NC(=O)[C@@H](N)Cc2ccc(O)cc2)[C@@H](C)O)CSC(=O)[C@H](CCSC)NC1=O` (HELM PEPTIDE1{Y.S.T.C.D.F.I.M}$PEPTIDE1,PEPTIDE1,4:R3-8:R2$$$V2.0) gave an EC50 in test [1] of 11000 nM.

On to `CC[C@H](C)[C@@H]1NC(=O)[C@H](Cc2ccccc2)NC(=O)[C@H](Cc2ccc(O)cc2)NC(=O)[C@@H](NC(=O)[C@@H](NC(=O)[C@H](CO)NC(=O)[C@@H](N)Cc2ccc(O)cc2)[C@@H](C)O)CSC(=O)[C@H](CCSC)NC1=O` [YSTCYFIM] (HELM PEPTIDE1{Y.S.T.C.Y.F.I.M}$PEPTIDE1,PEPTIDE1,4:R3-8:R2$$$V2.0), for which the values for the IC50 in [2], in test [4] and in test [5] were 1 nM, 7000 nM and 4 nM, respectively. In test [3], this compound displayed a 50% effective concentration (EC50) of 13 nM.

Take `CC(C)C[C@@H]1NC(=O)[C@H](CO)NC(=O)[C@H](CO)NC(=O)[C@@H](NC(=O)[C@H](C)NC(=O)[C@H](CC(N)=O)NC(=O)[C@@H](NC(=O)CN)C(C)C)CSC(=O)[C@H](Cc2ccccc2)NC1=O` [GVNACSSLF] (HELM PEPTIDE1{G.V.N.A.C.S.S.L.F}$PEPTIDE1,PEPTIDE1,5:R3-9:R2$$$V2.0): the IC50 is 1 nM in [2] and 86 nM in test [6]. Moreover, the EC50 in [7] was 3.6 nM.

As to `CC[C@H](C)[C@@H]1NC(=O)[C@H](Cc2ccccc2)NC(=O)[C@H](C)NC(=O)[C@@H](NC(=O)[C@@H](NC(=O)[C@H](CO)NC(=O)[C@@H](N)Cc2ccc(O)cc2)[C@@H](C)O)CSC(=O)[C@@H](CCSC)NC1=O`, the IC50 in test [8] is 256 nM and 30 nM.

Compound `CC[C@H](C)[C@@H]1NC(=O)[C@H](Cc2ccccc2)NC(=O)[C@H](CC(=O)O)NC(=O)[C@@H](NC(C)=O)CSC(=O)[C@H](CCSC)NC1=O` (HELM PEPTIDE1{[ac].C.D.F.I.M}$PEPTIDE1,PEPTIDE1,2:R3-6:R2$$$V2.0) yielded an IC50 in [8] of 8000 nM.

In the case of H-INCDFLL-OH, the IC50 in [4] was determined as 70 nM; in test [5], 6 nM; in [6], 150 nM. A half-maximal response in test [9] (EC50) required 26 nM.
